Eleven molecules from ChEMBL document CHEMBL1201862, “PubChem BioAssay data set” (2004) can be followed below.

Each structure is given as a SMILES string.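 Cells were grown in 96-well plates and exposed to each compound for 48 hours at five concentrations; endpoints were interpolated linearly between bracketing concentrations, or set to the highest concentration if not reached. GI50 = concentration required for 50% inhibition of growth.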 The source made the active and inactive calls. Cut-off read from the data, not from the text of the source: active = GI50 up to about 1.1 µM and inactive = higher.

Among the test systems are 786-0; A498; CAKI-1; EKVX; HCT-15; HOP-62; LOX IMVI; MDA-MB-435; NCI-H23; NCI-H522; NCI/ADR-RES; OVCAR-3; SF-295; SK-MEL-5; TK-10; UACC-257; UO-31; Hs-578T; SF-268; OVCAR-4.
Assay in all cases: growth of human tumour cells (NCI), 48 h

With `CN(C)CCn1c(=O)c2ccc3c4c(nn3CCN(C)C)c3cc(O)ccc3n(c1=O)c24`, the GI50 was < 0.01 µM (active) in the assay with 786-0; 0.198 µM (active) in the assay on A498; 0.0501 µM (active) in the assay on CAKI-1; 0.124 µM (active) in the assay with EKVX; 0.147 µM with HCT-15; < 0.0316 µM (active) in the assay with HOP-62. Further, the GI50 is < 0.0306 µM (active) in the assay with LOX IMVI; 0.134 µM (active) with MDA-MB-435; 0.0855 µM (active) with NCI-H23; < 0.01 µM (active) with NCI-H522; 0.783 µM (active) with NCI/ADR-RES; 0.114 µM (active) with OVCAR-3. Further, the GI50 in the assay on SF-295 is 0.0136 µM (active); with SK-MEL-5, 0.319 µM (active); in the assay with TK-10, 0.117 µM (active); in the assay on UACC-257, 0.308 µM (active); in the assay with UO-31, 0.0927 µM (active).
Take `NCCc1ccc2c(c1)C(=O)c1c(O)ccc(O)c1C2=O`: the GI50 is 2.2 µM (inactive) with 786-0; > 58.1 µM (inactive) in the assay on A498; 4.84 µM (inactive) in the assay with CAKI-1; 2.45 µM (inactive) in the assay on EKVX; 4.51 µM in the assay on HCT-15; 3.6 µM (inactive) in the assay with HOP-62. Besides, the GI50 in the assay with Hs-578T is 5.98 µM (inactive); with LOX IMVI it was 4.11 µM (inactive); in the assay on NCI-H23 it was 3.5 µM (inactive); in the assay with NCI/ADR-RES, 3.93 µM (inactive); with OVCAR-3, 1.69 µM (inactive); in the assay with SF-268, 4.13 µM (inactive). For the same molecule, the GI50 was 4.62 µM (inactive) with SF-295; 0.843 µM (active) with SK-MEL-5; > 100 µM (inactive) with TK-10; 15.2 µM (inactive) with UACC-257; 4.65 µM (inactive) in the assay on UO-31.
For `C#CCOCn1cc(C)c(=O)[nH]c1=O`, the GI50 in the assay on 786-0 was > 100 µM (inactive); with A498, > 100 µM (inactive); with CAKI-1 it was > 100 µM (inactive); in the assay with EKVX, > 100 µM (inactive); in the assay with HCT-15 it was > 100 µM; with HOP-62, > 100 µM (inactive). Besides, the GI50 in the assay on Hs-578T, with LOX IMVI, in the assay on NCI-H23, in the assay on NCI/ADR-RES, in the assay on SF-268 and in the assay on SF-295 was > 100 µM (inactive) throughout. Moreover, the GI50 in the assay on SK-MEL-5, in the assay with TK-10, in the assay on UACC-257 and in the assay with UO-31 was > 100 µM (inactive) each time.
Take `COc1ccccc1NCC(=O)Nn1c(C)nc2ccc(S(=O)(=O)Nc3ccccc3OC)cc2c1=O`: the GI50 is > 100 µM (inactive) in the assay on 786-0; > 100 µM (inactive) in the assay on CAKI-1; > 100 µM (inactive) in the assay with EKVX; 56.1 µM in the assay on HCT-15; > 100 µM (inactive) in the assay with HOP-62; > 100 µM (inactive) with Hs-578T. Moreover, the GI50 is > 100 µM (inactive) in the assay on LOX IMVI; 26.7 µM (inactive) in the assay with MDA-MB-435; > 100 µM (inactive) in the assay with NCI-H23; 35.6 µM (inactive) in the assay with NCI-H522; > 100 µM (inactive) in the assay on NCI/ADR-RES; 83.4 µM (inactive) in the assay on OVCAR-3. Further, the GI50 in the assay with OVCAR-4 is > 100 µM (inactive); in the assay on SF-268 it was > 100 µM (inactive); in the assay on SF-295, 36.1 µM (inactive); with TK-10, > 100 µM (inactive); in the assay with UACC-257 it was > 100 µM (inactive); in the assay with UO-31, > 100 µM (inactive).
Take `COc1ccn(CC(=O)c2cc3ccccc3[nH]2)c(=O)n1`: the GI50 in the assay with 786-0 was > 100 µM (inactive); in the assay with A498, > 100 µM (inactive); with CAKI-1, > 100 µM (inactive); in the assay with EKVX, > 100 µM (inactive); in the assay on HCT-15 it was > 100 µM; in the assay on HOP-62, > 100 µM (inactive). Also, the GI50 in the assay on LOX IMVI, in the assay on MDA-MB-435, with NCI-H23, in the assay with NCI-H522, in the assay with NCI/ADR-RES and with OVCAR-3 was > 100 µM (inactive) each time. The GI50 in the assay with OVCAR-4, with SF-268, with SF-295, with SK-MEL-5, in the assay on TK-10 and in the assay with UACC-257 was > 100 µM (inactive) throughout. Also, the GI50 with UO-31 is > 100 µM (inactive).
On to `Cc1cc2ccccc2n1CC(=O)N1CCCC1`, for which the GI50 with 786-0 was > 100 µM (inactive); with EKVX it was > 100 µM (inactive); in the assay with HCT-15, > 100 µM; in the assay on HOP-62, > 100 µM (inactive); in the assay on Hs-578T, > 100 µM (inactive); in the assay with LOX IMVI, > 100 µM (inactive). For the same molecule, the GI50 with MDA-MB-435, in the assay with NCI-H23, in the assay with NCI-H522, in the assay on NCI/ADR-RES, in the assay with OVCAR-3 and with OVCAR-4 was > 100 µM (inactive) throughout. Besides, the GI50 in the assay on SF-268, in the assay on SK-MEL-5, in the assay on TK-10, in the assay with UACC-257 and with UO-31 was > 100 µM (inactive) throughout.
For the molecule `Cc1c2ccccc2cc2nc3ccccc3n12`, the GI50 was > 10 µM (inactive) in the assay on 786-0; > 10 µM (inactive) in the assay on CAKI-1; > 10 µM (inactive) in the assay with EKVX; > 10 µM in the assay on HCT-15; > 10 µM (inactive) with HOP-62; > 10 µM (inactive) in the assay on Hs-578T. For the same molecule, the GI50 with MDA-MB-435, in the assay with NCI-H23, in the assay on NCI-H522, with NCI/ADR-RES, with OVCAR-3 and with OVCAR-4 was > 10 µM (inactive) in each case. Besides, the GI50 in the assay on SF-268 was > 10 µM (inactive); in the assay on SF-295, > 10 µM (inactive); in the assay with SK-MEL-5 it was > 10 µM (inactive); in the assay on TK-10, 0.00668 µM (active); in the assay on UACC-257, > 10 µM (inactive).
Regarding `CN(C)NC1=NS(=O)(=O)c2cc3c(cc2S1)N(N(C)C)C(=O)c1cc2c(cc1N(N(C)C)C3=O)SC(NN(C)C)=NS2(=O)=O`, the GI50 was > 10 µM (inactive) in the assay on 786-0; > 10 µM (inactive) in the assay on A498; > 10 µM (inactive) in the assay on CAKI-1; > 10 µM (inactive) in the assay on EKVX; > 10 µM in the assay on HCT-15; > 10 µM (inactive) with HOP-62. Besides, the GI50 with Hs-578T, in the assay with LOX IMVI, in the assay with NCI-H23, with NCI-H522, in the assay on NCI/ADR-RES and in the assay on OVCAR-3 was > 10 µM (inactive) each time. Besides, the GI50 in the assay with OVCAR-4, in the assay on SF-268, in the assay with SF-295, in the assay with SK-MEL-5, in the assay on TK-10 and in the assay on UACC-257 was > 10 µM (inactive) throughout. For the same molecule, the GI50 in the assay on UO-31 is > 10 µM (inactive).
`CCN(CCN(CC)C(=O)NC)C(=O)NC`: the GI50 with 786-0 was > 100 µM (inactive); in the assay with A498, > 100 µM (inactive); with EKVX it was > 100 µM (inactive); in the assay with HCT-15, > 100 µM; with HOP-62, > 100 µM (inactive); in the assay on Hs-578T, > 100 µM (inactive). Further, the GI50 in the assay with LOX IMVI, with NCI-H23, in the assay on NCI-H522, with NCI/ADR-RES, with SF-268 and with SF-295 was > 100 µM (inactive) in each case. The GI50 in the assay with SK-MEL-5, with TK-10, in the assay with UACC-257 and in the assay with UO-31 was > 100 µM (inactive) each time.
For the molecule `CC1(c2nc3ccccc3[nH]2)CCC(C(N)=O)C(C)(C)O1` (centres undefined), the GI50 in the assay on 786-0 is > 100 µM (inactive); in the assay with CAKI-1, > 100 µM (inactive); with EKVX, > 100 µM (inactive); with HCT-15 it was > 100 µM; in the assay with HOP-62, > 100 µM (inactive); in the assay with Hs-578T, > 100 µM (inactive). Further, the GI50 with LOX IMVI, with MDA-MB-435, in the assay on NCI-H23, in the assay with NCI-H522, in the assay on NCI/ADR-RES and with OVCAR-3 was > 100 µM (inactive) in each case. Also, the GI50 with OVCAR-4, with SF-268, in the assay with SF-295, in the assay with SK-MEL-5, in the assay with TK-10 and in the assay with UACC-257 was > 100 µM (inactive) throughout. For the same molecule, the GI50 with UO-31 is > 100 µM (inactive).
Turning to `CCCCCCCCCCCCC(O)C1CCC(C(O)CCCCC(O)CCCCCC2CC(CC(C)=O)C(=O)O2)O1` (centres undefined), the GI50 was 6.79 µM (inactive) with 786-0; 4.52 µM (inactive) in the assay with A498; 8.87 µM (inactive) with CAKI-1; 3.25 µM (inactive) with EKVX; 3.35 µM with HCT-15; 4.58 µM (inactive) with HOP-62. In addition, the GI50 with Hs-578T is 1.69 µM (inactive); with LOX IMVI, 1.4 µM (inactive); in the assay on NCI-H23 it was < 0.01 µM (active); in the assay on NCI-H522, 4.15 µM (inactive); with NCI/ADR-RES, 0.29 µM (active); in the assay on OVCAR-3, 2.09 µM (inactive). Besides, the GI50 in the assay with OVCAR-4 was 1.44 µM (inactive); with SF-268 it was 3.33 µM (inactive); in the assay on SF-295 it was 0.133 µM (active); in the assay with SK-MEL-5, 0.0931 µM (active); with TK-10 it was 4.99 µM (inactive); with UACC-257, 0.0204 µM (active). For the same molecule, the GI50 in the assay with UO-31 was 2.27 µM (inactive).
